Measurements from patent publication US8399489B2, “Antibacterial piperdine derivatives” (Astrazeneca AB, priority 2005, dated 2013).
In brackets after ≈: the same amount, converted by molar mass. Values belong to the compound of their own block, whether it stands above or below them.

Experiments:
Type in all cases: cell-based
Streptococcus pneumoniae = assay: Bacterial susceptibility testing in liquid media (MIC), Streptococcus pneumoniae; conditions: lowest concentration reducing growth by 80% or more, 37 degrees C., 24 hrs, read-out: MIC against Streptococcus pneumoniae
Protocol: (§1) Compounds were tested for antimicrobial activity by susceptibility testing in liquid media. Compounds were dissolved in dimethylsulfoxide and tested in 10 doubling dilutions in the susceptibility assays. The organisms used in the assay were grown overnight on suitable agar media and then suspended in a liquid medium appropriate for the growth of the organism. The suspension was a 0.5 McFarland and a further 1 in 10 dilution was made into the same liquid medium to prepare the final organism suspension in 100 μL. Plates were incubated under appropriate conditions at 37 degrees C. for 24 hrs prior to reading. The Minimum Inhibitory Concentration was determined as the lowest drug concentration able to reduce growth by 80% or more.

MCA445 = assay: Bacterial susceptibility testing in liquid media (MIC), MCA445; conditions: strain MCA445; lowest concentration reducing growth by 80% or more; 37 degrees C., 24 hrs
Protocol: as §1

EFM073 = assay: Bacterial susceptibility testing in liquid media (MIC), EFM073; conditions: strain EFM073; lowest concentration reducing growth by 80% or more; 37 degrees C., 24 hrs
Protocol: as §1

SPN548 = assay: Bacterial susceptibility testing in liquid media (MIC), SPN548; conditions: strain SPN548; lowest concentration reducing growth by 80% or more; 37 degrees C., 24 hrs
Protocol: as §1

SAU516 = assay: Bacterial susceptibility testing in liquid media (MIC), SAU516; conditions: strain SAU516; lowest concentration reducing growth by 80% or more; 37 degrees C., 24 hrs
Protocol: as §1

HIN446 = assay: Bacterial susceptibility testing in liquid media (MIC), HIN446; conditions: strain HIN446; lowest concentration reducing growth by 80% or more; 37 degrees C., 24 hrs
Protocol: as §1

- MIC (Streptococcus pneumoniae): 0.13 µg/mL (≈ 0.281 µM)
Structure (SMILES): CO[C@@H]1CN(c2cc(C(=O)O)nc(Cl)n2)CC[C@@H]1NC(=O)c1[nH]c(C)c(Cl)c1Cl (racemic) [Example 48, Cis(±)2-Chloro-6-(4-{[(3,4-dichloro-5-methyl-1H-pyrrol-2-yl)carbonyl]amino}-3-methoxypiperidin-1-yl)pyrimidine-4-carboxylic acid]

Structure (SMILES): CO[C@@H]1CN(c2cc(C(=O)O)nc3ccccc23)CC[C@@H]1NC(=O)c1cc(Cl)c(C)[nH]1 (racemic) [Example 60, Cis(±)4-(4-{[(4-chloro-5-methyl-1H-pyrrol-2-yl)carbonyl]amino}-3-methoxypiperidin-1-yl)quinoline-2-carboxylic acid]
- MIC MCA445 (MCA445): 0.25 µg/mL (≈ 0.564 µM)
- MIC EFM073 (EFM073): 8 µg/mL (≈ 18.1 µM)
- MIC SPN548 (SPN548): 2 µg/mL (≈ 4.52 µM)
- MIC SAU516 (SAU516): 2 µg/mL (≈ 4.52 µM)
- MIC HIN446 (HIN446): 4 µg/mL (≈ 9.03 µM)

Structure (SMILES): CO[C@@H]1CN(c2cc(C(=O)O)ncc2Cl)CC[C@@H]1NC(=O)c1[nH]c(C)c(Cl)c1Cl (racemic) [Example 315, Cis(±)-5-chloro-4-(4-{[(3,4-dichloro-5-methyl-1H-pyrrol-2-yl)carbonyl]amino}-3-methoxypiperidin-1-yl)pyridine-2-carboxylic acid]
- MIC MCA445 (MCA445): 0.13 µg/mL (≈ 0.282 µM)
- MIC EFM073 (EFM073): 4 µg/mL (≈ 8.66 µM)
- MIC SPN548 (SPN548): 0.5 µg/mL (≈ 1.08 µM)
- MIC SAU516 (SAU516): 4 µg/mL (≈ 8.66 µM)
- MIC HIN446 (HIN446): 2 µg/mL (≈ 4.33 µM)

Structure (SMILES): CO[C@H]1CN(c2nc3cccc(C(=O)O)c3s2)CC[C@H]1NC(=O)c1[nH]c(C)c(Cl)c1Cl [Example 294]
- MIC MCA445 (MCA445): 0.001 µg/mL (≈ 0.00207 µM)
- MIC EFM073 (EFM073): 0.016 µg/mL (≈ 0.0331 µM)
- MIC SPN548 (SPN548): 0.0039 µg/mL (≈ 0.00807 µM)
- MIC SAU516 (SAU516): 0.031 µg/mL (≈ 0.0641 µM)
- MIC HIN446 (HIN446): 0.031 µg/mL (≈ 0.0641 µM)

Structure (SMILES): Cc1[nH]c(C(=O)N[C@@H]2CCN(c3cc(C(=O)O)ccn3)C[C@@H]2F)c(Cl)c1Cl [Example 345, 2-((3S,4R)-4-{[(3,4-dichloro-5-methyl-1H-pyrrol-2-yl)carbonyl]amino}-3-fluoropiperidin-1-yl)isonicotinic acid]
- MIC MCA445 (MCA445): 0.031 µg/mL (≈ 0.0747 µM)
- MIC EFM073 (EFM073): 0.13 µg/mL (≈ 0.313 µM)
- MIC SPN548 (SPN548): 0.03 µg/mL (≈ 0.0722 µM)
- MIC SAU516 (SAU516): 0.5 µg/mL (≈ 1.2 µM)
- MIC HIN446 (HIN446): 0.25 µg/mL (≈ 0.602 µM)
